Assay results taken from PMC12638251, “Uridine-sensitized screening identifies demethoxy-coenzyme Q and NUDT5 as regulators of nucleotide synthesis” (Nature Metabolism, 2025).

Molecular target: T1, PPAT (amidophosphoribosyltransferase) (Homo sapiens, UniProt Q06203)
T1 construct: with NUDT5
Test: native PAGE of K562 lysate with PRPP dose curve (loss of NUDT5-PPAT oligomer); co-immunoprecipitation with […] PRPP
Type: biochemical

T1 sequence (Q06203 12-517): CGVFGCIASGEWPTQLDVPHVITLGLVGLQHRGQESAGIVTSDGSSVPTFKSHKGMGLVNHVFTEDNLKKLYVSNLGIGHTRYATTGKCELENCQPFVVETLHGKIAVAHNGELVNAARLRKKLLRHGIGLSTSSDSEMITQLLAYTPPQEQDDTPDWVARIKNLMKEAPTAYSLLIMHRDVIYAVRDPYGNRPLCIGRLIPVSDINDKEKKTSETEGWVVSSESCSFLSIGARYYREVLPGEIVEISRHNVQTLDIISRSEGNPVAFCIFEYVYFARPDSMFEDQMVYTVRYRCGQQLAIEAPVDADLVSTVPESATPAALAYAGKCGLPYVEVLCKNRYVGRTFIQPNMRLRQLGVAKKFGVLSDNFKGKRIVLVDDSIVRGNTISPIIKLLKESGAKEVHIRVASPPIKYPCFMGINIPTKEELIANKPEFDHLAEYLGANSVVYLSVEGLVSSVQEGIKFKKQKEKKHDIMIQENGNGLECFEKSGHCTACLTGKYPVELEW
T1 sequence (O95848 whole entry partner): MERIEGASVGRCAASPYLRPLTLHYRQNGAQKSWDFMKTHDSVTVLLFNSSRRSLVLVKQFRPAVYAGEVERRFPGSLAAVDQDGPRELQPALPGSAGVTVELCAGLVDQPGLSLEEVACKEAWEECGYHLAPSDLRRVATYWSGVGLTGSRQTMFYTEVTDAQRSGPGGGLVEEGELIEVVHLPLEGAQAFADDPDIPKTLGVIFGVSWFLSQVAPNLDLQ

IC50: 100 µM
SMILES: O=P(O)(O)OC[C@H]1OC(OP(=O)(O)OP(=O)(O)O)[C@H](O)[C@@H]1O (stereo partly shown) [PRPP, phosphoribosyl pyrophosphate]
